The results in this text go back to PMC3090393, “New Noncovalent Inhibitors of Penicillin-Binding Proteins from Penicillin-Resistant Bacteria” (PLoS ONE, 2011).

The structures appear in SMILES notation.

Chain of PBP5fm (Q47759 entry or part of it): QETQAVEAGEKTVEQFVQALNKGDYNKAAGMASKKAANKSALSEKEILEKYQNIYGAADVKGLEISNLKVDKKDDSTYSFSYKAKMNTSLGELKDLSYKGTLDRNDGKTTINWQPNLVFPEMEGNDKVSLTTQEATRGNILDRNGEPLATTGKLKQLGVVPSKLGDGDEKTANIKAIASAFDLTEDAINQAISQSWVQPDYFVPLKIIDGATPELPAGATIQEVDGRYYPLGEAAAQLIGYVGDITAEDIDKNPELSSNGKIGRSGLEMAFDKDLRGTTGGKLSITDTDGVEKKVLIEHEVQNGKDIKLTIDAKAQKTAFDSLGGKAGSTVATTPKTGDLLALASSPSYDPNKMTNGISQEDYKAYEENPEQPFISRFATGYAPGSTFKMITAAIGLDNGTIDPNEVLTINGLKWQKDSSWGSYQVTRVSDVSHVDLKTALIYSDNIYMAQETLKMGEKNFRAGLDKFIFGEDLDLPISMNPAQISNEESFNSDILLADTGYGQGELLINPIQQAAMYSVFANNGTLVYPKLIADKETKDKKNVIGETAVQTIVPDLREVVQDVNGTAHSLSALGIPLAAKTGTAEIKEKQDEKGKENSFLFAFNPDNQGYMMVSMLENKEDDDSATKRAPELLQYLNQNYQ
T1 sequence (P07944 whole entry): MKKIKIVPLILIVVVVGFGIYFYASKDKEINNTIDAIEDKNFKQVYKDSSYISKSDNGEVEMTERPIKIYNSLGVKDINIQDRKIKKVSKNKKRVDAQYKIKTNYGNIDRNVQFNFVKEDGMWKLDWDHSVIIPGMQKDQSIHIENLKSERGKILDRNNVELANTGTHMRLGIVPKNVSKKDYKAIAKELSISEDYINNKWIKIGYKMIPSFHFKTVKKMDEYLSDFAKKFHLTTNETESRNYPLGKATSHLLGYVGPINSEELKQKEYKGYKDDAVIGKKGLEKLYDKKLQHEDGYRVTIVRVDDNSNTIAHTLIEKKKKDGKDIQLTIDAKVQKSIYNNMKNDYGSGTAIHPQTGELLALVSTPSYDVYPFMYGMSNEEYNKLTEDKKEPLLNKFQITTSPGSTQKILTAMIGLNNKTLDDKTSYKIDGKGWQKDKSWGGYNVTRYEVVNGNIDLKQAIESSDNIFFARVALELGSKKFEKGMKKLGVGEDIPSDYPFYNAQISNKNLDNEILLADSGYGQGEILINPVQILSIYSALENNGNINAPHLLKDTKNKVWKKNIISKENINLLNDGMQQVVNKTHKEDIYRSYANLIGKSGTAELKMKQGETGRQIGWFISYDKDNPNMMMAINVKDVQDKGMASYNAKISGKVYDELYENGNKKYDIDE

In one assay the target is PBP5fm (Enterococcus faecium, UniProt Q47759). Nature of the assay: PBP5fm enzymatic inhibition assay (fluorescein-labeled ampicillin, residual penicillin binding activity). The class given is biochemical, Enterococcus faecium D63r. To be noted: 4 h; residual activity of the enzyme at 1 mM inhibitor; 0.01% Triton X-100; read-out: PBP5fm RA [%]. As to the method:
(§1) PBP2a from Staphylococcus aureus ATCC 43300 and PBP5fm from Enterococcus faecium D63r were overproduced and purified as described previously, [18].
(§2) Each of the purified PBPs (2.5 µM) were first incubated with 1 mM potential inhibitor in 100 mM phosphate buffer, 0.01% Triton X-100[19], pH 7, for 4 h at 30°C. Then, 25 µM fluorescein-labeled ampicillin[20] was added to detect the residual penicillin binding activity (RA). The samples were further incubated for 30 min at 37°C in a total volume of 20 µL. Denaturation buffer was added (0.1 M Tris/HCl, pH 6.8, containing 25% glycerol, 2% SDS, 20% β-mercaptoethanol and 0.02% bromophenol blue) and the samples were heated to 100°C for 1 min. The samples were then loaded onto a 10% SDS-acrilamide gel (10×7 cm) and electrophoresis was performed for 45 min at 180 V (12 mA). Detection and quantification of the RAs were with Molecular Image FX equipment and Quantity One software (BioRad, Hercules, CA, USA). Three independent experiments were carried out for each inhibitor.
For `CCCOc1ccc(C(=O)Nc2ccc(O)cc2C(=O)O)cc1` [compound 7, 5-Hydroxy-2-(4-propoxybenzamido)benzoic acid], the activity at 1000 µM was found to be 72%.

Turning to `CCCOc1ccc(C(=O)Nc2ccccc2C(=O)O)cc1` [compound 8, 2-(4-Propoxybenzamido)benzoic acid], the activity at 1000 µM turned out to be 74%.

The next assay concerns the target T1, PBP2a (Staphylococcus aureus, UniProt P07944).
T1 construct: made in house
Nature of the assay: PBP2a enzymatic inhibition assay (fluorescein-labeled ampicillin, residual penicillin binding activity). Type of assay: biochemical, Staphylococcus aureus ATCC 43300. To be noted: 4 h; residual activity of the enzyme at 1 mM inhibitor; 0.01% Triton X-100; mean of three experiments; read-out: PBP2a RA [%]. As to the method: as §1, §2
On to `CCCOc1ccc(C(=O)Nc2ccc(O)cc2C(=O)O)cc1` [compound 7, 5-Hydroxy-2-(4-propoxybenzamido)benzoic acid], for which the remaining activity at 1000 µM was 74%.

Turning to `CCCOc1ccc(C(=O)Nc2ccccc2C(=O)O)cc1` [compound 8, 2-(4-Propoxybenzamido)benzoic acid], the remaining activity at 1000 µM was determined as 60%.

A further assay deals with PBP2x 5204 (Streptococcus pneumoniae, UniProt P59676). Nature of the assay: PBP2x 5204 enzymatic inhibition assay (S2d hydrolysis, DTNB). To be noted: residual activity of the enzyme at 1 mM inhibitor; 240 min. The class given is biochemical, Streptococcus pneumoniae strain 5204. As for the experimental part: PBP2x-5204 from Streptococcus pneumonia and N-benzoyl-D-alanyl-thioglycolate S2d[21], [22] were prepared as previously described. All assays with PBP2x 5204 were carried out in 96-well microtiter plates (Brand, Wertheim, Germany). PBP2x 5204 (0.6 µM) was incubated in the presence of the potential inhibitors in 10 mM sodium phosphate buffer (pH 7.0) containing 70 mM D-alanine and 0.01 mg/mL BSA, for 4 h at 25°C. This preincubation was used to also detect slow binding inhibitors. After the preincubation, the RA of PBP2x 5204 was determined. The initial rate of hydrolysis of 1 mM S2d in the presence of 1 mM DTNB was determined by monitoring the increase in absorbance at 412 nm (DTNB: ε[Δ ε] = […]) using a microplate absorbance reader (Power Wave X, Biotek Instruments, Winooski, U.S.A.). The rate of spontaneous hydrolysis of S2d in the presence of the potential inhibitors was also determined in the absence of PBP2x 5204. All of the assays were carried out in triplicate. The determination of the RA of PBP2x 5204 in the absence of inhibitors was carried out six times on each plate. A test compound was considered as an inhibitor if the RA was <80%. In this case, to reveal false positives, the assays were also carried out under the same conditions in the presence of 0.01% Triton X-100. As described in the literature, promiscuous inhibitors (false positives) are slow binding, noncompetitive inhibitors. To avoid detailed kinetic investigations, it is possible to identify such compounds by carrying out the assays in the presence of Triton X-100[14], [19]. Promiscuous inhibitors show no inhibition in the presence of Triton X-100. The IC50 values in the presence of Triton X-100 were determined if the RAs were <50%. (RA: ∼50%, IC50∼c, c: concentration of compound in the assay; RA >50%, IC50 > c). The RA was measured over a range of concentrations, from which the IC50 values were determined by non-linear regression analysis, using Sigma Plot (Systat software) and fitting the data to the equation y = y0+(a×b)/(b+x)[23].
Chain of PBP2x 5204 (P59676 49-750): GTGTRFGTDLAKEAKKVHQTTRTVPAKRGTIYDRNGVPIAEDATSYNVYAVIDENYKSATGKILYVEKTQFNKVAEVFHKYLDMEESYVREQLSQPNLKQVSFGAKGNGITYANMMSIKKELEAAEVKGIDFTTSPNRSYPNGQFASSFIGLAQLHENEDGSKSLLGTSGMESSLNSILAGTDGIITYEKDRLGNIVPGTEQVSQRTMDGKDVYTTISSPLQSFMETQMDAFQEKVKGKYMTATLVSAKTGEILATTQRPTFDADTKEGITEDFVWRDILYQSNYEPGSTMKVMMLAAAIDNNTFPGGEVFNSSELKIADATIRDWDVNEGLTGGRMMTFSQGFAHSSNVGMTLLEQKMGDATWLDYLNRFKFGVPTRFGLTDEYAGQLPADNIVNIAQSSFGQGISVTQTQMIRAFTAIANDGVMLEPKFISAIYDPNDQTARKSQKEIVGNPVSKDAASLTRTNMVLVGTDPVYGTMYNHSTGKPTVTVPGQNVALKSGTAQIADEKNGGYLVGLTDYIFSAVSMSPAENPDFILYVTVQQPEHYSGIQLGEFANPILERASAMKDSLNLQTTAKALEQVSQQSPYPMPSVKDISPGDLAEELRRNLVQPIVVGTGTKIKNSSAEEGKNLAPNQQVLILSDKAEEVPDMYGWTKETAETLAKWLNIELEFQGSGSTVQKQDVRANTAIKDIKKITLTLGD
For `CCCOc1ccc(C(=O)Nc2ccc(O)cc2C(=O)O)cc1` [compound 7, 5-Hydroxy-2-(4-propoxybenzamido)benzoic acid], the “PBP2x5204 RA [%]” value is 65%.

With `CCCOc1ccc(C(=O)Nc2ccccc2C(=O)O)cc1` [compound 8, 2-(4-Propoxybenzamido)benzoic acid], the “PBP2x5204 RA [%]” value amounted to 103%.
